Reference: patent publication US8202836B2, “Modified PYY (3-36) peptides and their effects on feeding behavior” (Imperial Innovations Limited, priority 2005, dated 2012)

Legend:
Male C57BL/6 mice = test: Food intake after intraperitoneal injection in overnight-fasted mice; type: in vivo; conditions: for reduction of food intake by 30 μg/kg versus a 100 μg/kg dose of PYY(3-36): dose response, peripheral injection after overnight fast
Procedure: (§1) Male C57BL/6 mice (20-30 g) were used for all mouse experiments. Male Wistar rats were used for the rat experiments. Mice or rats were individually housed in IVC cages. Animals were randomised by weight and fasted overnight for 16 hrs before intraperitoneal injection at 9 am. Food intake was measured at 1, 2, 4, 6 and 24 hours post injection. All peptide solutions were prepared freshly the morning of the study and injected as 100 μl. All statistics are calculated using the student's paired t-test.
Mice were injected with PYY(3-36) 100 μg/kg, allo_ILeu^3 PYY(3-36) 100 μg/kg, D_allo_ILeu^3 PYY(3-36) 100 μg/kg or saline (n=10/group) and food intake was measured at time intervals over 24 hours. In the Figure, significance versus saline is indicated by *=p<0.05, **=p<0.01, ***=p<0.001 paired t-test.
(§2) 30 μg/kg or 100 μg/kg of PYY(3-36) or D_allo_ILeu^3 PYY(3-36) was injected after an overnight fast and food intake was measured at time intervals over a period of 24 hours. In the Figures, significance versus saline is indicated by *=p<0.05, **=p<0.01, ***=p<0.001 paired t-test.

Male Wistar rats = test: Food intake after intraperitoneal injection in overnight-fasted rats; type: in vivo; conditions: for reduction of food intake by 30 μg/kg versus a 100 μg/kg dose of PYY(3-36): dose response, peripheral injection after overnight fast
Procedure: as §1
as §2, with “The experiment was identical to Example 2, except that Wistar rats were used instead of C57BL/6 mice. 30” for “30”

[1] = from 30 μg/kg vs 100 μg/kg comparison

## D-allo-Ile^3 PYY3-36 [D_allo_ILeu^3 PYY(3-36)]
Male C57BL/6 mice; 0-4 hours
  decrease of food intake over the total period 0-4 hours versus native PYY3-36: to a greater extent
Male C57BL/6 mice; 100 μg/kg each, 0-1 hr
  cumulative food intake compared to the PYY(3-36) injected group (p, paired t-test): 0.0138
Male C57BL/6 mice; 100 μg/kg each, 0-2 hr
  cumulative food intake compared to the PYY(3-36) injected group (p, paired t-test): 0.0063
Male C57BL/6 mice; 100 μg/kg each, 0-4 hr
  cumulative food intake compared to the PYY(3-36) injected group (p, paired t-test): 0.0003
Male C57BL/6 mice; 100 μg/kg each, 0-6 hr
  cumulative food intake compared to the PYY(3-36) injected group (p, paired t-test): 0.0024
Male C57BL/6 mice; 100 μg/kg each, 24 hr
  food intake over a 24 hr period compared to the PYY(3-36) 100 μg/kg group (p, paired t-test): 0.0554
Male C57BL/6 mice; 100 μg/kg intraperitoneal after overnight fast, n=10/group
  food intake compared with saline: significantly decreased food intake
Male C57BL/6 mice
  reduction of food intake by 30 μg/kg versus a 100 μg/kg dose of PYY(3-36): at least as powerful
Male C57BL/6 mice; listed as D-allo-Ile^3 PYY3-36
  reduction of food intake by 30 μg/kg versus a 100 μg/kg dose of PYY(3-36): same decrease in food intake
Male C57BL/6 mice; [1]
  superiority in efficacy over PYY(3-36): 3 fold
Male Wistar rats; 0-4 hours
  decrease of food intake over the total period 0-4 hours versus native PYY3-36: to a greater extent
Male Wistar rats
  reduction of food intake by 30 μg/kg versus a 100 μg/kg dose of PYY(3-36): at least as powerful
Male Wistar rats; listed as D-allo-Ile^3 PYY3-36
  reduction of food intake by 30 μg/kg versus a 100 μg/kg dose of PYY(3-36): same decrease in food intake
Male Wistar rats; [1]
  superiority in efficacy over PYY(3-36): 3 fold
Male Wistar rats; same quantity
  decrease in food intake versus the same quantity of normal human PYY3-36: greater decrease in food intake
